Test results taken from patent publication US20210008161A1, “METHODS AND COMPOSITIONS FOR IMPROVED HOMOLOGY DIRECTED REPAIR” (CRISPR THERAPEUTICS AG, priority 2019, published 2021).

Columns and labels:
HEK293 T cells = test: TIDE analysis of DSB repair at CFTR gene locus; type: cell-based, human
Description: The effect of Nu7441 treatment on HDR was also evaluated at the CFTR gene locus in HEK293 T cells. To do so cells were electroporated with RNP comprising Cas9 and a gRNA targeting the CFTR gene locus (SEQ ID NO: 18; sgRNA target sequence identified by SEQ ID NO: 19). 2×10^5 cells were edited with 1 μM Cas9 and 1.5 μM gRNA. The cells were transfected with a ssODN donor (SEQ ID NO: 42). Cells were edited with 100 μM ssODN. The ssODN contains homology arms spanning both sides of the DSB induced by the Cas9-guide and is designed to include 3 additional base pairs (GCA) into the CFTR gene to aid detection of HDR. Cells were also treated with 5 μM Nu7441. Gene correction was assessed by TIDE analysis. TIDE analysis uses a pair of PCR reactions and standard capillary sequencing runs to identify mutations induced at the site of a DSB (see e.g., Brinkman (2014) Nucleic Acids Res 42:e168). The type of mutation induced at the DSB was indicative of the pathway used to repair the DSB. Formation of an indel comprising either an insertion or a deletion of bases was considered due to NHEJ repair; a deletion of 2-3 base pairs was considered due to MMEJ repair; while an insertion of 3 base pairs was considered due to HDR repair. Shown in FIGS. 4A-4B are mutations introduced at the DSB for cells treated with Nu7441 (FIG. 4B) compared to a DMSO negative control (FIG. 4A). […] This reduction in NHEJ repair in the presence of Nu7441 was evaluated with an additional ssODN donor (SEQ ID NO: 41).

[1] = tested on: CD34-expressing LT-HSPCs derived from human patients with sickle cell disease; test: SCD gene correction (E6V to E6) by HDR and INDEL frequency by NGS in patient-derived cells
Description: The effect of i53 on HDR efficiency was evaluated in cells derived from patients with a sickle cell mutation in the HBB gene. Specifically, CD34-expressing LT-HSPCs derived from human patients with sickle cell disease were edited with SpCas9, R02 guide, and AAV.323 encoding a correction to the E6V mutation in the HBB gene.
Briefly, CD34-expressing LT-HSPCs were derived from plerixafor+GCSF-dual mobilized peripheral blood obtained from a human donor with sickle cell disease. The cells were seeded in Phase I media at a cell density of 2×10^5 cells/mL. Cells were cultured at 37° C. under normoxic conditions (i.e., oxygen 20%).
Editing of cells was performed following two days of in vitro culture. Briefly, 5×10^5 cells were electroporated with RNP containing 20 μg SpCas9 and 20 μg R02 sgRNA, AAV.323 at a dose of 10,000 MOI, and 1 μg mRNA encoding i53. The cells were incubated with AAV.323 for 1 hour prior to electroporation. The cells were edited by electroporation with R02+AAV.323+i53 mRNA and compared to control cells edited with R02 only, R02+AAV.323, or cells exposed to electroporation without RNP or AAV editing components (mock EP).
The efficiency of gene correction by HDR repair at the HBB gene locus was evaluated by NGS assay as described in Example 3. Frequency of INDELs at the R02 cut site was evaluated by NGS analysis. […]

[2] = either ssODN donor (SEQ ID NO: 41 or 42), FIG. 5

Molecule | HDR repair (+3 base pair insertion) at the DSB (HEK293 T cells; 5 μM Nu7441, ssODN SEQ ID NO: 42, FIG. 4) | indel formation (NHEJ repair) (HEK293 T cells; 5 μM Nu7441, ssODN SEQ ID NO: 42, vs DMSO negative control, FIG. 4) | HDR repair (HEK293 T cells; [2]) | indel formation due to NHEJ repair (HEK293 T cells; [2]) | incorporation of the E6V→E6 gene correction ([1]; R02 RNP + AAV.323 + 1 μg i53 mRNA, FIG. 32A, 34B) | fold lower frequency of INDELs at the R02 cut site ([1]; compared to cells edited with RNP+AAV.323 alone, FIG. 32B)
O=c1cc(N2CCOCC2)oc2c(-c3cccc4c3sc3ccccc34)cccc12 [Nu7441] | much higher levels | dramatically reduced | increase | decreased levels |  | 
i53: polypeptide inhibitor of 53BP1 (SEQ ID NO: 70), introduced as an mRNA-encoded protein (ORF SEQ ID NO: 69) |  |  |  |  | 66% | 1.9 fold
